# Data as given in PubChem BioAssay (NCI).
#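 Following 48 hours of exposure in 96-well plates, responses at five concentrations were used to interpolate endpoints linearly. The concentration for 50% growth inhibition is given as GI50. TGI denotes the concentration required for complete inhibition of growth.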
# Tests used:
# Assay in all cases: NCI tumour cell line growth inhibition, 48 h
# A549 NSCLC = tested on: A549 NSCLC
# ACHN renal = tested on: ACHN renal
# UACC-62 melanoma = tested on: UACC-62 melanoma
# SN12C renal = tested on: SN12C renal
# HL-60(TB) leukemia = tested on: HL-60(TB) leukemia
# HCT-116 colon = tested on: HCT-116 colon
# SK-MEL-28 melanoma = tested on: SK-MEL-28 melanoma
# HCT-15 colon = tested on: HCT-15 colon
# HOP-62 NSCLC = tested on: HOP-62 NSCLC
# CCRF-CEM leukemia = tested on: CCRF-CEM leukemia
Structure (SMILES),GI50 (A549 NSCLC) [µM],TGI (A549 NSCLC) [µM],GI50 (ACHN renal) [µM],TGI (ACHN renal) [µM],GI50 (UACC-62 melanoma) [µM],TGI (UACC-62 melanoma) [µM],GI50 (SN12C renal) [µM],TGI (SN12C renal) [µM],GI50 (HL-60(TB) leukemia) [µM],TGI (HL-60(TB) leukemia) [µM],GI50 (HCT-116 colon) [µM],TGI (HCT-116 colon) [µM],GI50 (SK-MEL-28 melanoma) [µM],TGI (SK-MEL-28 melanoma) [µM],GI50 (HCT-15 colon) [µM],TGI (HCT-15 colon) [µM],GI50 (HOP-62 NSCLC) [µM],TGI (HOP-62 NSCLC) [µM],GI50 (CCRF-CEM leukemia) [µM],TGI (CCRF-CEM leukemia) [µM]
CNC(=O)c1cc(Oc2ccc3nc(NC(=O)c4cc(C(F)(F)F)cc(C(F)(F)F)c4)sc3c2)ccn1,3.99,14.6,3.26,11.8,2.71,12.1,3.22,12.5,2.49,5.11,3.41,11.9,3.76,43.7,3.97,25.1,3.36,10.8,3.47,> 100
COC(=O)C(=C\Sc1ccccc1)/C=C/C(=O)OC(C)(C)C,–,42,–,17.2,–,28.8,–,> 29,–,3.73,–,21.9,–,26.2,–,17.7,–,34.8,–,5.35
COc1cc2c3c(n(CCCN=[N+]=[N-])c(=O)c2cc1OC)-c1ccc(N)cc1C3=O,0.374,2.34,0.102,1.02,0.082,0.451,0.282,> 27.1,0.102,1.02,0.097,0.521,0.613,2.78,0.378,2.46,0.118,0.666,0.0277,1.1
CCOC(=O)NC(=O)c1cn(CCCCCCCCCCC(=O)N2CCN(CCn3cc(C(=O)NC(=O)OCC)c(=O)[nH]c3=O)CC2)c(=O)[nH]c1=O,–,> 100,–,> 100,–,> 100,–,> 100,–,> 100,–,> 100,–,> 100,–,> 100,–,> 100,–,> 100
S=c1cn[nH]c2ccc(Br)cc12,–,> 100,–,> 100,–,> 100,–,> 100,–,> 100,–,> 100,–,> 100,–,> 100,–,> 100,–,> 100
Nc1ccccc1S(=O)c1ccccc1 (stereo not given),–,> 100,–,> 100,–,> 100,–,> 100,–,> 100,–,> 100,–,> 100,–,> 100,–,> 100,–,> 100
S=C(Nc1ccc(-c2nc3ccccc3s2)cc1)Nc1ccccn1,27,> 100,26.3,> 70.8,21.4,57.3,22.9,63.6,30.7,> 100,21.5,55.5,35.3,> 95.4,27.4,> 71.6,44.4,> 100,25.5,> 100
O=C(/C=C/c1ccccc1Cl)c1ccc(O)cc1,7.33,25.1,6.99,19.2,7.88,21.8,8.51,33.1,3.22,> 23.2,2.98,10.8,11,23,2.48,11.1,20.4,37.3,6.18,35
